Assay results from patent US9914754B2, “Conjugates of neurotensin or neurotensin analogs and uses thereof” (Angiochem Inc., priority 2008, dated 2018).
Read-outs that look alike come from different tables or passages of the source. Peptide text beside a SMILES is read from it.

How the values were obtained:
NTSR1 = NTSR1 (Homo sapiens, UniProt P30989); assay type: binding
[1] = in situ brain perfusion assay; cited from earlier work
[2] = competition with [3H]-NT on HT29 cells expressing NTSR1

Chain of NTSR1 (P30989 whole entry, the tested form may be a part): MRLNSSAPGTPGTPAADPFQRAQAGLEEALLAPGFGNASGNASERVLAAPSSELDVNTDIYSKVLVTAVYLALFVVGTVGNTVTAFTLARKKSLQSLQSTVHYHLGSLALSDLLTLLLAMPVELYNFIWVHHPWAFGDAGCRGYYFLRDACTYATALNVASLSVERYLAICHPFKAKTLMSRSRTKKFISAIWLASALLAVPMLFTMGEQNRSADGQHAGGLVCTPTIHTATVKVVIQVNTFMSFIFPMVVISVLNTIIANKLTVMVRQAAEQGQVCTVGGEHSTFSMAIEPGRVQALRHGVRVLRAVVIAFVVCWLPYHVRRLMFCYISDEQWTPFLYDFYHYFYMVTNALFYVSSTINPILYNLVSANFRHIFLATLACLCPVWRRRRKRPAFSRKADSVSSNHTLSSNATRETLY

IC50 (NTSR1; HT29 cells, [3H]-NT, values in the text (FIGS. 21, 22)) | IC50 (NTSR1; [2]) | Compound | transport across the BBB relative to Angiopep-1 (250 nM) [1]
5.39 µM | > 0.1 µM | CC[C@H](C)[C@H](NC(=O)[C@@H](Cc1ccc(O)cc1)NC(=O)[C@@H]1CCCN1C(=O)[C@H](CCCNC(=N)N)NC(=O)[C@H](CCCNC(=N)N)NC(=O)C(CCCCNC(=O)CCCCCN1C(=O)CC(SC[C@H](NC(=O)[C@H](Cc2ccc(O)cc2)NC(=O)[C@H](CCC(=O)O)NC(=O)[C@H](CCC(=O)O)NC(=O)[C@@H](NC(=O)[C@H](CCCCN)NC(=O)[C@H](Cc2ccccc2)NC(=O)[C@H](CC(N)=O)NC(=O)[C@H](CC(N)=O)NC(=O)[C@H](CCCNC(=N)N)NC(=O)[C@H](CCCCN)NC(=O)CNC(=O)[C@H](CCCNC(=N)N)NC(=O)[C@H](CO)NC(=O)CNC(=O)CNC(=O)[C@H](Cc2ccc(O)cc2)NC(=O)[C@H](Cc2ccccc2)NC(=O)[C@H](Cc2ccccc2)NC(=O)[C@@H](N)[C@@H](C)O)[C@@H](C)O)C(N)=O)C1=O)NC(C)=O)C(=O)N[C@@H](CC(C)C)C(=O)O (stereo partly drawn) [Ac-Lys-[D-Tyr^11]NT(8-13)-An2] | 
 | 0.001 µM | CC[C@H](C)[C@H](NC(=O)[C@H](Cc1ccc(O)cc1)NC(=O)[C@@H]1CCCN1C(=O)[C@H](CCCNC(=N)N)NC(=O)[C@H](CCCNC(=N)N)NC(=O)[C@H](CCCCN)NC(C)=O)C(=O)N[C@@H](CC(C)C)C(=O)O [AcLys-NT(8-13)] (Ac-KRRPYIL-OH) | 
 |  | T F F Y G G S R G K R N N F R T E E Y (TFFYGGSRGKRNNFRTEEY) [Angiopep-6] | 38.5%
